Assay results as given in patent publication US20090105283A1, “3-HYDROQUINAZOLIN-4-ONE DERIVATIVES FOR USE AS STEAROYL CoA DESATURASE INHIBITORS” (priority 2007, published 2009).
Several values for one entry are separate records, joined by “and”; a condition that tells them apart may be missing. Equal values may be shown once.

Biological target: T1, stearoyl-CoA desaturase (SCD) (Rattus norvegicus, UniProt P07308)
T1 construct: The microsomes were quickly thawed and added to assay buffer so that a concentration of 0.4 mg/ml was achieved; from tissue
T1 sequence (P07308 1-358): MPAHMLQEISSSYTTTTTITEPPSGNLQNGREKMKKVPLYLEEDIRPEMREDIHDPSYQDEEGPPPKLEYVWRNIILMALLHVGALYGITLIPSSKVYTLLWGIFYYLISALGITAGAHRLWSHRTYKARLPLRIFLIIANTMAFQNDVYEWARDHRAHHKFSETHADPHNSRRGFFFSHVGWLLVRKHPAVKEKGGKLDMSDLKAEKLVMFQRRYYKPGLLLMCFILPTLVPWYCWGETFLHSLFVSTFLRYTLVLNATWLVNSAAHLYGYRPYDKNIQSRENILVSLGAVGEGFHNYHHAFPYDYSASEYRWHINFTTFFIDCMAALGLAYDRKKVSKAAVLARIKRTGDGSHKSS
Assay: SCD assay with rat liver microsomes ([3H]stearoyl CoA, adapted from Talamo and Bloch)
Format: biochemical
Conditions: Table 1; rat liver microsomes 0.2 mg/ml assay final, [3H]stearoyl CoA substrate, 30 min preincubation, 45 min reaction, room temperature
Source text: Male Spraque Dawley Rats were placed on regimented fasting protocol for one week to stimulate SCD enzymatic activity. 48-hour periods were alternated between feeding and fasting to induce and down-regulate SCD activity with SCD activity being induced via carbohydrate rich diet prior to liver perfusion and collection.
The rats were anesthetized with Isoflurane inhalation anesthetic, the liver perfused with cold phosphate buffered saline (PBS), weighed, and chilled in cold homogenization buffer (250 mM sucrose, 10 mM Tris, 1 mM EDTA, pH 7.6.
The livers were finely minced and placed in homogenization tube. 40 mL of homogenization buffer was added to the homogenization tube and the liver homogenized and centrifuged in a pre-chilled […] for 10 min at 4° C.
Following centrifugation, the supernatant was collected and the pellet removed and discarded. The supernatant was centrifuge at 10,000 G for 35 minutes. Following centrifugation, the supernatant was collect and the pellet discarded. The supernatant was then centrifuged in a pre-chilled 45-Ti rotor at 130,000 G (41,000 RPM) for 90 minutes at 4° C.
The supernatant was then aspirated off and the collected microsomal pellet washed in 25 mL of Glycerol PBS (1×PBS 7.4, 20% Glycerol) and resuspended in 4-5 volumes of Glycerol PBS.
The protein concentration of the microsomal preparation was determined by BCA assay (Pierce) and the microsomes were aliquoted and stored at −80° C.
Biobeads were ground to a smaller size in a mortar and pestle and resuspended in 3.6% TCA. The beads were then filtered through […] mesh.
SCD was determined in the desaturase assay buffer. This assay buffer contained 0.1 M Tris buffer, pH 7.2, 2 mM NADH, 4.8 mM ATP, 0.5 mM CoA, 4.8 mM MgCl2, and 0.1% BSA.
1 μl of each compound of Formula I was added to an assay plate by a low volume (0.5-10 μL) multichannel pipette. A DMSO control was also prepared. The microsomes were quickly thawed and added to assay buffer so that a concentration of 0.4 mg/ml was achieved (0.2 mg/ml assay final). 50 μl of the microsome suspension in assay buffer was then added into each well in the compound assay plate, the plate was covered, and the microsomes preincubated with the compounds for 30 minutes on the orbital shaker, 50-75 rpm, at room temperature.
The reaction mixtures were then incubated for 45 minutes on the orbital shaker at 50-75 rpm at room temperature.
The reaction was terminated by the addition of 10 μl of 21% trichloroacetic acid (TCA) to the reaction mixture followed incubation on the orbital shaker for 30 minutes at 50-75 rpm at room temperature followed by centrifugation for 5 minutes at 3700 rpm.
50 μl of a 6% Bio-Bead suspension in H2O was added to the reaction mixture and the assay plate was sealed. The Bio-Bead mixture was incubated on the orbital shaker for 1 hour, 100-150 rpm at room temperature, and then the mixture was centrifuged at 2000 g for 5 minutes to pellet the Bio-Beads.
25 μl of the supernatant was harvested from each well and transferred to a detection plate. 100 μl of OptiPhase SuperMix scinitillation cocktail (containing sufficient NaOH to neutralize the TCA) was added and the solutions mixed by vigorous shaking (300-400 rpm) for 5 minutes at room temperature.

SMILES	IC50
O=C(Nc1ccc2ncn(Cc3ccc(Cl)c(Cl)c3)c(=O)c2c1)OCCc1ccccc1 [LXXI, N-{3-[(3,4-dichlorophenyl)methyl]-4-oxo(3-hydroquinazolin-6-yl)}(2-phenylethoxy)carboxamide]	4380 nM
CC(=O)OCC(=O)Nc1ccc2c(=O)n(Cc3cccc(F)c3)cnc2c1 [LXXII, (N-{3-[(3-fluorophenyl)methyl]-4-oxo-3-hydroquinazolin-7-yl}carbamoyl)methyl acetate]	290 nM
O=C(Nc1ccc2c(=O)n(Cc3ccc(F)c(Cl)c3)cnc2c1)OCc1ccccc1 [LXXIII, N-{3-[(3-chloro-4-fluorophenyl)methyl]-4-oxo(3-hydroquinazolin-7-yl)}(phenylmethoxy)carboxamide]	290 nM
O=C(Nc1ccc2c(=O)n(Cc3ccc(F)c(Cl)c3)cnc2c1)OCc1cccnc1 [LXXIV, N-{3-[(3-chloro-4-fluorophenyl)methyl]-4-oxo(3-hydroquinazolin-7-yl)}(3-pyridylmethoxy)carboxamide]	120 nM
O=C(Nc1ccc2ncn(Cc3ccc(Cl)c(Cl)c3)c(=O)c2c1)OCc1ccncc1 [LXXIX, N-{3-[(3,4-dichlorophenyl)methyl]-4-oxo(3-hydroquinazolin-6-yl)}(4-pyridylmethoxy)carboxamide]	1000 nM
CC(=O)OCC(=O)Nc1ccc2c(=O)n(Cc3ccc(F)c(Cl)c3)cnc2c1 [LXXV, (N-{3-[(3-chloro-4-fluorophenyl)methyl]-4-oxo-3-hydroquinazolin-7-yl}carbamoyl)methyl acetate]	1090 nM
O=C(Nc1ccc2c(=O)n(Cc3cccc(F)c3)cnc2c1)OCc1cccnc1 [LXXVI, N-{3-[(3-fluorophenyl)methyl]-4-oxo(3-hydroquinazolin-7-yl)}(3-pyridylmethoxy)carboxamide]	1340 nM
O=C(Nc1ccc2c(=O)n(Cc3ccc(Cl)c(F)c3)cnc2c1)OCc1cccnc1 [LXXVII, N-{3-[(4-chloro-3-fluorophenyl)methyl]-4-oxo(3-hydroquinazolin-7-yl)}(3-pyridylmethoxy)carboxamide]	250 nM
CC(=O)OCC(=O)Nc1ccc2c(=O)n(Cc3ccc(Cl)c(F)c3)cnc2c1 [LXXVIII, (N-{3-[(4-chloro-3-fluorophenyl)methyl]-4-oxo-3-hydroquinazolin-7-yl}carbamoyl)methyl acetate]	1020 nM
N#Cc1cccc(COC(=O)Nc2ccc3ncn(Cc4ccc(Cl)c(Cl)c4)c(=O)c3c2)c1 [LXXX, N-{3-[(3,4-dichlorophenyl)methyl]-4-oxo(3-hydroquinazolin-6-yl)}[(3-cyanophenyl)methoxy]carboxamide]	670 nM
O=C(CO)Nc1ccc2c(=O)n(Cc3ccc(Cl)cc3)cnc2c1 [LXXXI, N-{3-[(4-chlorophenyl)methyl]-4-oxo(3-hydroquinazolin-7-yl)}-2-hydroxyacetamide]	3120 nM
O=C(CO)Nc1ccc2c(=O)n(Cc3ccc(Cl)c(Cl)c3)cnc2c1 [LXXXII, N-{3-[(3,4-dichlorophenyl)methyl]-4-oxo(3-hydroquinazolin-7-yl)}-2-hydroxyacetamide]	350 nM
O=C(Nc1ccc2c(=O)n(Cc3ccc(Cl)c(F)c3)cnc2c1)OCc1ccccc1 [LXXXIII, N-{3-[(4-chloro-3-fluorophenyl)methyl]-4-oxo(3-hydroquinazolin-7-yl)}(phenylmethoxy)carboxamide]	210 nM
CN(CCOC(=O)Nc1ccc2ncn(Cc3ccc(Cl)c(Cl)c3)c(=O)c2c1)Cc1ccccc1 [LXXXIV, N-{3-[(3,4-dichlorophenyl)methyl]-4-oxo(3-hydroquinazolin-6-yl)}{2-[methylbenzylamino]ethoxy}carboxamide]	11000 nM
O=C(Nc1ccc2ncn(Cc3ccc(Cl)c(Cl)c3)c(=O)c2c1)OCc1ccccn1 [LXXXIX, N-{3-[(3,4-dichlorophenyl)methyl]-4-oxo(3-hydroquinazolin-6-yl)}(2-pyridylmethoxy)carboxamide]	780 nM
O=C(Nc1ccc2ncn(Cc3ccc(Cl)c(Cl)c3)c(=O)c2c1)OCC1CC1 [LXXXV, N-{3-[(3,4-dichlorophenyl)methyl]-4-oxo(3-hydroquinazolin-6-yl)}(cyclopropylmethoxy)carboxamide]	2970 nM
CN(C)CC(=O)OCC(=O)Nc1ccc2ncn(Cc3ccc(Cl)c(Cl)c3)c(=O)c2c1 [LXXXVI, (N-{3-[(3,4-dichlorophenyl)methyl]-4-oxo-3-hydroquinazolin-6-yl}carbamoyl)methyl 2-(dimethylamino)acetate]	360 nM
O=C(CO)Nc1ccc2c(=O)n(Cc3ccc(F)c(Cl)c3)cnc2c1 [LXXXVII, N-{3-[(3-chloro-4-fluorophenyl)methyl]-4-oxo(3-hydroquinazolin-7-yl)}-2-hydroxyacetamide]	2320 nM and 2230 nM
O=C(NCc1ccccc1)Nc1ccc2ncn(Cc3ccc(Cl)c(Cl)c3)c(=O)c2c1 [V, N-{3-[(3,4-dichlorophenyl)methyl]-4-oxo(3-hydroquinazolin-6-yl)}[benzylamino]carboxamide]	3180 nM
Cc1nc2ccc(NC(=O)OCc3ccccc3)cc2c(=O)n1Cc1ccc(Cl)c(Cl)c1 [VI, N-{3-[(3,4-dichlorophenyl)methyl]-2-methyl-4-oxo(3-hydroquinazolin-6-yl)}(phenylmethoxy)carboxamide]	20000 nM
CC(C)COC(=O)Nc1ccc2ncn(Cc3ccc(Cl)c(Cl)c3)c(=O)c2c1 [VII, N-{3-[(3,4-dichlorophenyl)methyl]-4-oxo(3-hydroquinazolin-6-yl)}(2-methylpropoxy)carboxamide]	7900 nM
O=C(Nc1ccc2ncn(Cc3ccc(Cl)cc3)c(=O)c2c1)OCc1ccccc1 [VIII, N-{3-[(4-chlorophenyl)methyl]-4-oxo(3-hydroquinazolin-6-yl)}(phenylmethoxy)carboxamide]	190 nM
C=CCOC(=O)Nc1ccc2ncn(Cc3ccc(Cl)c(Cl)c3)c(=O)c2c1 [X, N-{3-[(3,4-dichlorophenyl)methyl]-4-oxo(3-hydroquinazolin-6-yl)}prop-2-enyloxycarboxamide]	1500 nM
CN(C)CC(=O)OCC(=O)Nc1ccc2c(=O)n(Cc3ccc(Cl)c(Cl)c3)cnc2c1 [XC, (N-{3-[(3,4-dichlorophenyl)methyl]-4-oxo-3-hydroquinazolin-7-yl}carbamoyl)methyl 2-(dimethylamino)acetate]	310 nM
CCOC(=O)COC(=O)Nc1ccc2c(=O)n(Cc3ccc(Cl)c(Cl)c3)cnc2c1 [XCI, ethyl 2-(N-{3-[(3,4-dichlorophenyl)methyl]-4-oxo-3-hydroquinazolin-7-yl}carbamoyloxy)acetate]	3770 nM
COCCOCCOC(=O)Nc1ccc2ncn(Cc3ccc(Cl)c(Cl)c3)c(=O)c2c1 [XCII, N-{3-[(3,4-dichlorophenyl)methyl]-4-oxo(3-hydroquinazolin-6-yl)}[2-(2-methoxyethoxy)ethoxy]carboxamide]	11700 nM
COCCNC(=O)Nc1ccc2ncn(Cc3ccc(Cl)c(Cl)c3)c(=O)c2c1 [XCIII, N-{3-[(3,4-dichlorophenyl)methyl]-4-oxo(3-hydroquinazolin-6-yl)}[(2-methoxyethyl)amino]carboxamide]	6200 nM
CC(=O)OCC(=O)Nc1ccc2ncn(Cc3cccc(C(F)(F)F)c3)c(=O)c2c1 [XCIV, [N-(4-oxo-3-{[3-(trifluoromethyl)phenyl]methyl}-3-hydroquinazolin-6-yl)carbamoyl]methyl acetate]	1700 nM
O=C(CO)Nc1ccc2ncn(Cc3ccc(Cl)c(F)c3)c(=O)c2c1 [XCIX, N-{3-[(4-chloro-3-fluorophenyl)methyl]-4-oxo(3-hydroquinazolin-6-yl)}-2-hydroxyacetamide]	1160 nM
